The source of these data is US8324246B2, “Indol carboxylic acid bispyridyl carboxamide derivatives, pharmaceutically acceptable salt thereof, preparation method and composition containing the same as an active ingredient” (Korea Research Institute of Chemical Technology, priority 2008, dated 2012).

What is called IC50 is the concentration needed to halve the response being measured.

SMILES strings stand for the structures. Like-named read-outs stand apart in the source and are kept apart here.

One test addresses T1, human 5-HT2c receptors (Homo sapiens, UniProt P28335).
T1 sequence (P28335 33-458): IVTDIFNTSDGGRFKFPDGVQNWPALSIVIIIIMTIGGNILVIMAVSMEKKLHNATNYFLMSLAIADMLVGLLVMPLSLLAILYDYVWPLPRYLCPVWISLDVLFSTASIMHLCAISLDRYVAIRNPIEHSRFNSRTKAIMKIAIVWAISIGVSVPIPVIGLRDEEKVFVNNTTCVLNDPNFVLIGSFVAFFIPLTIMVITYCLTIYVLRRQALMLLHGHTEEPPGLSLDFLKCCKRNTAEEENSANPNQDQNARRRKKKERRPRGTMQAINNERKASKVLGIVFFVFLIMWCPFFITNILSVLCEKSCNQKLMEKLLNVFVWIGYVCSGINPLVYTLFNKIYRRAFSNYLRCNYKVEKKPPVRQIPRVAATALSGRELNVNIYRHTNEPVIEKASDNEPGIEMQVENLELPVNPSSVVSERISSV
The following applies: for Inhibition rate of serotonin (5-HT)-induced [35S]GTPS increase: 30 µM serotonin.

A further test has as its target 5-HT2a (Homo sapiens, UniProt P28223). The test is described as follows: Receptor selectivity binding, 5-HT2a. The following applies: Table 3. How it is done: (§1) For their high binding affinities for 5-HT2c, compounds in Examples 14 to 18, 20, and 22 or in Comparative Example 1 were used for the experiment with reaction mixtures. Except that CNS receptors such as 5-HT1a, 5-HT2a, 5-HT7, D2, D3 or D4 other than 5-HT2c were used as a receptor, IC50 values (nM) were measured in the same manner as in Experimental Example 1.

The target of test [1] is T2, human gene recombinant 5-HT2c receptor expressed in CHO-K1 cell (Homo sapiens, UniProt P28335).
T2 construct: purchased Euroscreen, Belgium; host or cells: CHO-K1
T2 sequence (P28335 33-458): T1 sequence (P28335 33-458)
Nature of the test: Binding affinity to the serotonin 5-HT2c receptor ([3H]mesulergine).

A further test concerns the target D3 (Homo sapiens, UniProt P35462). The test is described as follows: Receptor selectivity binding, D3. As to conditions: Table 3. How it is done:
as §1

The target in another test is D2 (Homo sapiens, UniProt P14416). The test is described as follows: Receptor selectivity binding, D2. The following applies: Table 3. How it is done:
as §1

In the next test the target is 5-HT6 (Homo sapiens, UniProt P50406). The test is described as follows: Receptor selectivity binding, 5-HT6. The following applies: Table 3. On the procedure: as §1
For another test, the target named is T3, D4 (Homo sapiens, UniProt P21917).
T3 sequence (P21917 1-419): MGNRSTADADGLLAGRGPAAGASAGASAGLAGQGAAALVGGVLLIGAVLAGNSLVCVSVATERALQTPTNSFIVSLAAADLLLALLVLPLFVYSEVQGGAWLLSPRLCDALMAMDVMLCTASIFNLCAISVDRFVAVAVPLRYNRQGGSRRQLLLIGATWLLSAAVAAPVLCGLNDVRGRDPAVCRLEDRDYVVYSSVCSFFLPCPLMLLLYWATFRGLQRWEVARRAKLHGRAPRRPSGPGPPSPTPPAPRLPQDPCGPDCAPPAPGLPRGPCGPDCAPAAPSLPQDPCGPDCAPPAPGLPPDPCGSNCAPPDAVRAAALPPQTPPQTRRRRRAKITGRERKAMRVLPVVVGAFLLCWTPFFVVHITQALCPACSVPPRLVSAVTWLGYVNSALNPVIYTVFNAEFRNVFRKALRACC
The test is described as follows: Receptor selectivity binding, D4. As to conditions: Table 3. On the procedure: as §1

Another test concerns the target T4, 5-HT1a (Homo sapiens, UniProt P08908).
T4 sequence (P08908 1-422): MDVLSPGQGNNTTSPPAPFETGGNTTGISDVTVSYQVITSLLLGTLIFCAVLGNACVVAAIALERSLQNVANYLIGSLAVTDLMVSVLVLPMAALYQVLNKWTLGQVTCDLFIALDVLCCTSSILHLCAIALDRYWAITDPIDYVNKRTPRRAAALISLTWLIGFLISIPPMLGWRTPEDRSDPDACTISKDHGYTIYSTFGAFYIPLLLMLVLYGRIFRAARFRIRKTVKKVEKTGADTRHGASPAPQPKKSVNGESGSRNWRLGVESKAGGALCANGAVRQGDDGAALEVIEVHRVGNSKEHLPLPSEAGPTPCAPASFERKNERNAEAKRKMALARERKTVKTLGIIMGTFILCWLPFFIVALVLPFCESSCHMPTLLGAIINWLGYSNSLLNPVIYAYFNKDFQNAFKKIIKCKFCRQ
The test is described as follows: Receptor selectivity binding, 5-HT1a. The following applies: Table 3. On the procedure: as §1

The target of a further test is 5-HT7 (Homo sapiens, UniProt P34969). Nature of the test: Receptor selectivity binding, 5-HT7. The following applies: Table 3. How it is done: as §1
5-HT7, sequence (P34969 whole entry, species assumed): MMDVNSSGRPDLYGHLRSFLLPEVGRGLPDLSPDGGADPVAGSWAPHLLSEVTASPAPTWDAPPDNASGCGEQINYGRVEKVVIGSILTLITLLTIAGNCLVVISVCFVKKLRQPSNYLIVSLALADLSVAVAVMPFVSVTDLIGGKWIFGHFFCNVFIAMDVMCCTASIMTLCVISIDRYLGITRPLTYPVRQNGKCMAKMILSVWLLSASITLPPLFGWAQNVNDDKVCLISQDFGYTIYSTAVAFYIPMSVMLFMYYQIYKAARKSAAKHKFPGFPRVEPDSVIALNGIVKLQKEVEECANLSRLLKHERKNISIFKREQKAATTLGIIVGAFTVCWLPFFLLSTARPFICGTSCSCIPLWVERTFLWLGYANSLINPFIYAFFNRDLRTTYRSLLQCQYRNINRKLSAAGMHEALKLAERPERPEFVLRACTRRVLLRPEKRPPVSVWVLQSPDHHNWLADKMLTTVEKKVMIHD

D3, sequence (P35462 whole entry): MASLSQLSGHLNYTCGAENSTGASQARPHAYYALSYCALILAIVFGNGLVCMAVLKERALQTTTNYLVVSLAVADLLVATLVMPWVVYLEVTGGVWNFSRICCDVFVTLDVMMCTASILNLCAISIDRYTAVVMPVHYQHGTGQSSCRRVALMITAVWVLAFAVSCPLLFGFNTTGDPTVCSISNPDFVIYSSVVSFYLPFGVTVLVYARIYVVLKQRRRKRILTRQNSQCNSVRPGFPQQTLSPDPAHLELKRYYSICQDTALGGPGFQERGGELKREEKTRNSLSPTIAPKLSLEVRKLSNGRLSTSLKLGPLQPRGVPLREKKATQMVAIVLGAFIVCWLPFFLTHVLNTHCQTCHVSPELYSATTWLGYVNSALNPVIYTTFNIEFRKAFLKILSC
5-HT6, sequence (P50406 whole entry, species assumed): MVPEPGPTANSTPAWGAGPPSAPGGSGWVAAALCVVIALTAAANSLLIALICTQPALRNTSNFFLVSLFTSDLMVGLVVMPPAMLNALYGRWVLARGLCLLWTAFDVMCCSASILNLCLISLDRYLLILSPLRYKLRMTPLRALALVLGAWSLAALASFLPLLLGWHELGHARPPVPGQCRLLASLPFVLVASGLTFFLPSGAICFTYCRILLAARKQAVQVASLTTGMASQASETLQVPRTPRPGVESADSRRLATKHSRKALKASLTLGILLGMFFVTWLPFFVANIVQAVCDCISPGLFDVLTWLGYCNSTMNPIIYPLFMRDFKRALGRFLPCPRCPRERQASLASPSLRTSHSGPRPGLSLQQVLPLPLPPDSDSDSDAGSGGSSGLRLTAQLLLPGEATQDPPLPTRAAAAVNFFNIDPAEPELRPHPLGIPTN
D2, sequence (P14416 whole entry): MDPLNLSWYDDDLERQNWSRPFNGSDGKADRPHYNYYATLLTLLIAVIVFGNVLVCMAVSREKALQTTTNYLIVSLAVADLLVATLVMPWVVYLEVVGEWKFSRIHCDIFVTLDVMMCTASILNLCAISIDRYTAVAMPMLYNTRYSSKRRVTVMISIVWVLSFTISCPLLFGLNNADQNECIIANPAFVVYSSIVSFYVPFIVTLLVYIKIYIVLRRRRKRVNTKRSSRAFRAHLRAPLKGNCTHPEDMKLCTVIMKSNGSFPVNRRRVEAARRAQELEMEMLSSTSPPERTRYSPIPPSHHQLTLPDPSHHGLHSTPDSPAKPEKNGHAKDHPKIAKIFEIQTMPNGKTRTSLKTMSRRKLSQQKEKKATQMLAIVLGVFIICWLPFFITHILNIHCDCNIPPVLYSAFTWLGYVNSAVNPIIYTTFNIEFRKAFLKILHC
5-HT2a, sequence (P28223 whole entry, species assumed): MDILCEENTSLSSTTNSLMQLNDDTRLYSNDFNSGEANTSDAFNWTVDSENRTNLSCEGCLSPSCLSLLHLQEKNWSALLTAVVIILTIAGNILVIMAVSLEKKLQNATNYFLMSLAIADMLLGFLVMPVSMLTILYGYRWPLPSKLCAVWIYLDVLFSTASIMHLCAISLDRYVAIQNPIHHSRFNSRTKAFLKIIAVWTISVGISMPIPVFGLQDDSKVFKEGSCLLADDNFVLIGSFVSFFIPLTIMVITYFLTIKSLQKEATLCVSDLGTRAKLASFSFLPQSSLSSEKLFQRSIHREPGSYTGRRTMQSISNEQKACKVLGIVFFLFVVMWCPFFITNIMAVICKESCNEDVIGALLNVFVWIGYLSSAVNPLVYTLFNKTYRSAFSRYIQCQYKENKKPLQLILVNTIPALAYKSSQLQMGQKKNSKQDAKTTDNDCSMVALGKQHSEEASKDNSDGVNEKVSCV

For `Cc1cc2c(cc1Cl)N(C(=O)Nc1ccc(Oc3cccnc3C)nc1)CC2` [SB242084, reference compound], on human 5-HT2c receptors (control 5-HT2c antagonist), the “inhibition of the 5-HT-induced increase in [35S]GTPS concentration level” value was “inhibited”.

Regarding `O=C(Nc1ccc(Oc2cccnc2Cl)nc1)c1c[nH]c2ccccc12` [Example 22, 1H-indole-3-carboxylic acid[6-(2-chloro-pyridine-3-yloxy)-pyridine-3-yl]-amide], the IC50 is more than 1 µM at 5-HT2a; 0.0005 µM in test [1] (Table 3, read-out: IC50 5-HT2c); 0.0005 µM in test [1] ([3H]mesulergine 1 nM, 37° C. 30 minutes, Table 2, read-out: IC50); more than 10 µM at D3; more than 10 µM at D2; more than 10 µM at 5-HT6. Further, the IC50 at human 5-HT2c receptors (read-out: IC50, antagonist activity on serotonin (5-HT)-induced GTP level increase, 30 M serotonin) is 0.59 µM; on D4, more than 1 µM; on 5-HT1a it was more than 10 µM; on 5-HT7, more than 10 µM. Also, the “Inhibition rate of serotonin (5-HT)-induced [35S]GTPS increase” value on human 5-HT2c receptors (concentration 0.001 µM) amounted to 0%; at human 5-HT2c receptors (concentration 0.01 µM), 1%; at human 5-HT2c receptors (concentration 0.1 µM), 9%; on human 5-HT2c receptors (concentration 1 µM), 67%; at human 5-HT2c receptors (concentration 10 µM) it was 100%.
